# From patent US10479780B2, “Aminopyrazole derivatives” (Chugai Seiyaku Kabushiki Kaisha, priority 2015, dated 2019)
# Assays:
# Format in all cases: biochemical
# human Lck enzyme = target: T1, human Lck enzyme (Homo sapiens, UniProt P06239); experiment: Lck enzyme inhibitory activity (time-resolved fluorometry, biotinylated peptide phosphorylation); details: biotinylated peptide phosphorylation, read-out: LCK_IC50
# T1 construct: purchased Carna Biosciences, Inc. 08-170
# Procedure: (§1) 3. Lck Enzyme Inhibitory Activity Lck inhibitory activity was determined based on activity of inhibiting phosphorylation reaction of a biotinylated peptide (EGPWLEEEEEAYGWMDF) using a human Lck enzyme (manufactured by Carna Biosciences, Inc., cat 08-170). The phosphorylated biotinylated peptide was detected by time-resolved fluorometry using an anti-phosphorylated tyrosine antibody conjugated to europium cryptate, and streptavidin conjugated to XL665, an allophycocyanin derivative. The 50% inhibitory concentration (IC50) was calculated from the inhibition rate relative to the control group without containing the test substance.
# human Src enzyme = target: T2, human Src enzyme (Homo sapiens, UniProt P12931); experiment: Src enzyme inhibitory activity (time-resolved fluorometry, biotinylated peptide phosphorylation); details: biotinylated peptide phosphorylation, read-out: SRC_IC50
# T2 construct: purchased Carna Biosciences, Inc. 08-173
# Procedure: as §1, with “2. Src” for “3. Lck”, “Src” for “Lck”, “08-173).” for “08-170).”
# human Yes1 enzyme = target: T3, human Yes1 enzyme (Homo sapiens, UniProt P07947); experiment: Yes1 enzyme inhibitory activity (time-resolved fluorometry, biotinylated peptide phosphorylation); details: biotinylated peptide phosphorylation, read-out: YES_IC50
# T3 construct: made in house
# Procedure: as §1, with “1. Yes1” for “3. Lck”, “Yes1” for “Lck”, “prepared using a baculovirus expression system.” for “(manufactured by Carna Biosciences, Inc., cat 08-170).”
# T1 sequence (P06239 whole entry): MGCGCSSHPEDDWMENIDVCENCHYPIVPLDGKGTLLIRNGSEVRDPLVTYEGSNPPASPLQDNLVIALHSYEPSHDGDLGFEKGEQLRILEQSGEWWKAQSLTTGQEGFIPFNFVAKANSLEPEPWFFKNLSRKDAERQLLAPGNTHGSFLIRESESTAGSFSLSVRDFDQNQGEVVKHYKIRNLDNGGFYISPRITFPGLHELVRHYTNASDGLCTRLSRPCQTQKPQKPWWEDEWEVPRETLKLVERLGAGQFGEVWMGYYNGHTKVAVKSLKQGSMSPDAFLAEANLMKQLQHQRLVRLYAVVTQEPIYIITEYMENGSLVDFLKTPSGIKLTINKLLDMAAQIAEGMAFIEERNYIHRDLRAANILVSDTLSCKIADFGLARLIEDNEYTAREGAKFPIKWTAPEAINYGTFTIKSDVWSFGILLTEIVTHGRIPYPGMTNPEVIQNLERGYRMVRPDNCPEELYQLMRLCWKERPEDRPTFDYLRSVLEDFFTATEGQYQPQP
# T3 sequence (P07947 whole entry): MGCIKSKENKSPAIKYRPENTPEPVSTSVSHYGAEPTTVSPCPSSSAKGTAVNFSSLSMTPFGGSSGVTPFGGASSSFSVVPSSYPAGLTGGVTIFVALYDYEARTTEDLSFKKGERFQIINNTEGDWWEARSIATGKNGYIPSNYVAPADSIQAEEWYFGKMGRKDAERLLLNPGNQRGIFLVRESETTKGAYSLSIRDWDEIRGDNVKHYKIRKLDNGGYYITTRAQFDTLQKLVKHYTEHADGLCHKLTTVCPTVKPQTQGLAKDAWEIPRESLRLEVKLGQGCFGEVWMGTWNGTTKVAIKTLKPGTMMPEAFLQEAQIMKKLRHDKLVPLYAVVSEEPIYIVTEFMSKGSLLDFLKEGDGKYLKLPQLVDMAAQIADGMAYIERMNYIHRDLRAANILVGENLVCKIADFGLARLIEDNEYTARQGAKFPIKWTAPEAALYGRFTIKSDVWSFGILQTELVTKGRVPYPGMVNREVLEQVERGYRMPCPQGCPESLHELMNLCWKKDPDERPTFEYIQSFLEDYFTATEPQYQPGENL
# T2 sequence (P12931 whole entry): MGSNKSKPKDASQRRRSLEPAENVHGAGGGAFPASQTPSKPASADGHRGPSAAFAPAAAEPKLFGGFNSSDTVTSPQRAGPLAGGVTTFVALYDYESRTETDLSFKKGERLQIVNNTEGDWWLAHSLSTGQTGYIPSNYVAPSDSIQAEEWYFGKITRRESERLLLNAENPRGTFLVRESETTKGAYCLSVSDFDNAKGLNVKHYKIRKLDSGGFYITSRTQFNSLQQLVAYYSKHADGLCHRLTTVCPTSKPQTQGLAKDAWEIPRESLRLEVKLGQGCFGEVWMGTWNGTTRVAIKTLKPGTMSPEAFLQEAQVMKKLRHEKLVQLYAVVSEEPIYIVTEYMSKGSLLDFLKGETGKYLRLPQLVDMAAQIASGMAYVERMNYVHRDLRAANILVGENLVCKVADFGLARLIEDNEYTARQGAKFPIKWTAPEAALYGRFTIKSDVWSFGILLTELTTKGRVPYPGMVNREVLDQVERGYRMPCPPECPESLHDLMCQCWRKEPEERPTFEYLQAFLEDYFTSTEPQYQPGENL
Compound,IC50 (human Lck enzyme) [nM],IC50 (human Src enzyme) [nM],IC50 (human Yes1 enzyme) [nM]
"Cc1cc(Oc2cccc(F)c2F)ccc1-n1ncc(C(=O)c2cc3cc(C4CCN(C(C)C)CC4)c(F)cc3[nH]2)c1N [Example 4-2-002, [5-amino-1-[4-(2,3-difluorophenoxy)-2-methylphenyl]pyrazol-4-yl]-[6-fluoro-5-(1-propan-2-ylpiperidin-4-yl)-1H-indol-2-yl]methanone]",3.7,3.5,0.89
"CC(C)N1CCC(c2cc3cc(C(=O)c4cnn(-c5ccc(Oc6cccc(Cl)c6)cc5)c4N)[nH]c3cc2F)CC1 [Example 4-2-005, [5-amino-1-[4-(3-chlorophenoxy)phenyl]pyrazol-4-yl]-[6-fluoro-5-(1-propan-2-ylpiperidin-4-yl)-1H-indol-2-yl]methanone]",5,20,1.5
"CC(C)N1CCC(c2cc3cc(C(=O)c4cnn(-c5ccc(Oc6cccc(F)c6F)cc5F)c4N)[nH]c3cc2F)CC1 [Example 4-2-007, [5-amino-1-[4-(2,3-difluorophenoxy)-2-fluorophenyl]pyrazol-4-yl]-[6-fluoro-5-(1-propan-2-ylpiperidin-4-yl)-1H-indol-2-yl]methanone]",3.6,45,0.91
"Cc1cc(Oc2ccccc2Cl)ccc1-n1ncc(C(=O)c2cc3cc(F)c(C4CCN(C(C)C)CC4)cc3[nH]2)c1N [Example 4-2-012, [5-amino-1-[4-(2-chlorophenoxy)-2-methylphenyl]pyrazol-4-yl]-[5-fluoro-6-(1-propan-2-ylpiperidin-4-yl)-1H-indol-2-yl]methanone]",4.9,9.4,2.2
"Cc1cc(Oc2cccc(Cl)c2)ccc1-n1ncc(C(=O)c2cc3cc(F)c(C4CCN(C(C)C)CC4)cc3[nH]2)c1N [Example 4-2-013, [5-amino-1-[4-(3-chlorophenoxy)-2-methylphenyl]pyrazol-4-yl]-[5-fluoro-6-(1-propan-2-ylpiperidin-4-yl)-1H-indol-2-yl]methanone]",9.7,49,1.1
"Cc1cc(-n2ncc(C(=O)c3cc4cc(F)c(C5CCN(C(C)C)CC5)cc4[nH]3)c2N)ccc1Oc1ccccc1F [Example 4-2-014, [5-amino-1-[4-(2-fluorophenoxy)-3-methylphenyl]pyrazol-4-yl]-[5-fluoro-6-(1-propan-2-ylpiperidin-4-yl)-1H-indol-2-yl]methanone]",62,510,18
"Cc1cc(Oc2ccccc2F)ccc1-n1ncc(C(=O)c2cc3cc(F)c(NS(=O)(=O)CCCF)cc3[nH]2)c1N [Example 4-2-015, N-[2-[5-amino-1-[4-(2-fluorophenoxy)-2-methylphenyl]pyrazole-4-carbonyl]-5-fluoro-1H-indol-6-yl]-3-fluoropropane-1-sulfonamide]",10,19,0.67
"Cc1cc(Oc2cccc(F)c2F)ccc1-n1ncc(C(=O)c2cc3cc(F)c(NS(=O)(=O)CCCF)cc3[nH]2)c1N [Example 4-2-016, N-[2-[5-amino-1-[4-(2,3-difluorophenoxy)-2-methylphenyl]pyrazole-4-carbonyl]-5-fluoro-1H-indol-6-yl]-3-fluoropropane-1-sulfonamide]",19,70,2.1
"Cc1cc(Oc2ccccn2)ccc1-n1ncc(C(=O)c2cc3cc(F)c(NS(=O)(=O)CCCF)cc3[nH]2)c1N [Example 4-2-017, N-[2-[5-amino-1-(2-methyl-4-pyridin-2-yloxyphenyl)pyrazole-4-carbonyl]-5-fluoro-1H-indol-6-yl]-3-fluoropropane-1-sulfonamide]",17,26,0.55
"Nc1c(C(=O)c2cc3cc(F)c(NS(=O)(=O)CCCF)cc3[nH]2)cnn1-c1ccc(Oc2ccccn2)cc1Cl [Example 4-2-018, N-[2-[5-amino-1-(2-chloro-4-pyridin-2-yloxyphenyl)pyrazole-4-carbonyl]-5-fluoro-1H-indol-6-yl]-3-fluoropropane-1-sulfonamide]",15,22,0.52
"Cc1cc(Oc2ccccc2F)cc(F)c1-n1ncc(C(=O)c2cc3cc(F)c(NS(=O)(=O)CCCF)cc3[nH]2)c1N [Example 4-2-019, N-[2-[5-amino-1-[2-fluoro-4-(2-fluorophenoxy)-6-methylphenyl]pyrazole-4-carbonyl]-5-fluoro-1H-indol-6-yl]-3-fluoropropane-1-sulfonamide]",40,72,5.3
"Cc1cc(Oc2ccccc2F)ncc1-n1ncc(C(=O)c2cc3cc(F)c(NS(=O)(=O)CCCF)cc3[nH]2)c1N [Example 4-2-020, N-[2-[5-amino-1-[6-(2-fluorophenoxy)-4-methylpyridin-3-yl]pyrazole-4-carbonyl]-5-fluoro-1H-indol-6-yl]-3-fluoropropane-1-sulfonamide]",11,59,2
"Cc1cc(Oc2c(F)cccc2F)ncc1-n1ncc(C(=O)c2cc3cc(F)c(NS(=O)(=O)CCCF)cc3[nH]2)c1N [Example 4-2-021, N-[2-[5-amino-1-[6-(2,6-difluorophenoxy)-4-methylpyridin-3-yl]pyrazole-4-carbonyl]-5-fluoro-1H-indol-6-yl]-3-fluoropropane-1-sulfonamide]",8.6,43,1.5
"Cc1cc(Oc2cccc(F)c2F)ncc1-n1ncc(C(=O)c2cc3cc(F)c(NS(=O)(=O)CCCF)cc3[nH]2)c1N [Example 4-2-022, N-[2-[5-amino-1-[6-(2,3-difluorophenoxy)-4-methylpyridin-3-yl]pyrazole-4-carbonyl]-5-fluoro-1H-indol-6-yl]-3-fluoropropane-1-sulfonamide]",26,140,5.4

# Now those with a lower IC50 (human Lck enzyme), led by results:
IC50 (human Lck enzyme) [nM],IC50 (human Src enzyme) [nM],IC50 (human Yes1 enzyme) [nM],Compound
3.4,5.1,0.81,"CC(C)N1CCC(c2cc3cc(C(=O)c4cnn(-c5ccc(Oc6ccccc6F)cc5F)c4N)[nH]c3cc2F)CC1 [Example 4-2-009, [5-amino-1-[2-fluoro-4-(2-fluorophenoxy)phenyl]pyrazol-4-yl]-[6-fluoro-5-(1-propan-2-ylpiperidin-4-yl)-1H-indol-2-yl]methanone]"
3.3,12,1.3,"CC(C)N1CCC(c2cc3cc(C(=O)c4cnn(-c5ccc(Oc6cccc(F)c6)cc5)c4N)[nH]c3cc2F)CC1 [Example 4-2-006, [5-amino-1-[4-(3-fluorophenoxy)phenyl]pyrazol-4-yl]-[6-fluoro-5-(1-propan-2-ylpiperidin-4-yl)-1H-indol-2-yl]methanone]"
2.7,11,2.2,"Cc1cc(Oc2cccc(F)c2F)ccc1-n1ncc(C(=O)c2cc3cc(F)c(C4CCN(C(C)C)CC4)cc3[nH]2)c1N [Example 4-2-011, [5-amino-1-[4-(2,3-difluorophenoxy)-2-methylphenyl]pyrazol-4-yl][5-fluoro-6-(1-propan-2-ylpiperidin-4-yl)-1H-indol-2-yl]methanone]"
2.5,5.4,1.1,"CC(C)N1CCC(c2cc3cc(C(=O)c4cnn(-c5ccc(Oc6ccccc6Cl)cc5F)c4N)[nH]c3cc2F)CC1 [Example 4-2-008, [5-amino-1-[4-(2-chlorophenoxy)-2-fluorophenyl]pyrazol-4-yl]-[6-fluoro-5-(1-propan-2-ylpiperidin-4-yl)-1H-indol-2-yl]methanone]"
2.3,7.5,0.93,"CC(C)N1CCC(c2cc3cc(C(=O)c4cnn(-c5ccc(Oc6cccc(F)c6F)cc5)c4N)[nH]c3cc2F)CC1 [Example 4-2-004, [5-amino-1-[4-(2,3-difluorophenoxy)phenyl]pyrazol-4-yl]-[6-fluoro-5-(1-propan-2-ylpiperidin-4-yl)-1H-indol-2-yl]methanone]"
2.1,6.4,1.4,"Cc1cc(Oc2cccc(Cl)c2)ccc1-n1ncc(C(=O)c2cc3cc(C4CCN(C(C)C)CC4)c(F)cc3[nH]2)c1N [Example 4-2-003, [5-amino-1-[4-(3-chlorophenoxy)-2-methylphenyl]pyrazol-4-yl]-[6-fluoro-5-(1-propan-2-ylpiperidin-4-yl)-1H-indol-2-yl]methanone]"
1.9,4.7,1.2,"Cc1cc(Oc2ccccc2F)ccc1-n1ncc(C(=O)c2cc3cc(F)c(C4CCN(C(C)C)CC4)cc3[nH]2)c1N [Example 4-2-010, [5-amino-1-[4-(2-fluorophenoxy)-2-methylphenyl]pyrazol-4-yl]-[5-fluoro-6-(1-propan-2-ylpiperidin-4-yl)-1H-indol-2-yl]methanone]"
